{"source": "patent US20160120915A1", "about": "“METHODS FOR MANIPULATING IMMUNE RESPONSES BY ALTERING MICROBIOTA” (NEW YORK UNIVERSITY, priority 2013, published 2016)", "key": {"ileal tissue structure": {"test_system": "ileal tissue structure", "assay": "Ileal atrophy scoring in H&E stained ileum", "type": "in vivo, C57BL/6J mice", "conditions": "4-week old mice, n=5 each, p<0.05 Mann-Whitney U, vs control", "from_the_text": "Atrophy was scored in hematoxylin and eosin (H&E) stained ileum samples from 4-week old control and STAT mice (n=5 each).\nIleal tissues from 4-week-old control and STAT mice were formalin fixed and paraffin embedded, cut, and stained with hemotoxylin and eosin (H&E). 4 slides were scored for ileal atrophy per mouse and the average score per mouse was averaged."}, "[1]": {"test_system": "SAA genes in terminal ileum", "assay": "NOD: SAA 1, 2, 3 gene expression in terminal ileum by qPCR", "type": "in vivo", "conditions": "6-week old NOD male mice, qPCR normalized to 18S rRNA, p<0.05", "experimental": "The distal ileum (1 cm) without Peyer's Patches was collected from each mouse for RNA extraction and kept in RNAlater (Ambion) overnight at 4° C. Samples were stored at −80° C. until RNA extraction was performed.\nTotal RNA was extracted from mouse tissues using the RNeasy Mini Kit with on-column DNase treatment to remove contaminating gDNA (Qiagen), according to the manufacturer's instructions. 1 μg of total RNA was reverse transcribed to cDNA using Super Script II (Applied Biosystems) according to the manufacturer's instructions. To generate standards for expression analysis of each target gene, the cDNA region of interest was PCR-amplified and the product cloned into pGEM-T easy (Promega). qPCR was performed with Power SYBR Green PCR Master mix (Roche) and run in a LightCycler 480 system (Roche). Target mRNA was normalized to 18S rRNA as an internal control in each sample.\nRNA was extracted from the terminal ileum of the 6-week old NOD mice. […] RNA was reverse transcribed into cDNA and then qPCR was performed for SAA1, 2, or 3 using an absolute quantitation method. Gene expression data were normalized to 18S rRNA expression. […] The results for this experiment show consistent decreases in expression of the SAA genes in the ileum, detected by two independent methods (microarray and qPCR). […]"}, "terminal ileum": {"test_system": "terminal ileum", "assay": "NOD: ileal gene expression profiling by microarray", "type": "in vivo, NOD mice", "conditions": "for differentially regulated genes that were down: PAT vs Control", "experimental": "Ileal gene expression profiling of 6-week control, STAT, and PAT animal groups, was performed using the Affymetrix Genechip system (Affymetrix, Santa Clara Calif.). Total RNA quality and quantity were determined using the Nanodrop ND-1000, agarose gel, and Agilent 2100 Bioanalyser. Total RNA (100 ng) was used to prepare cDNA following the Affymetrix 3′IVT Express Kit labeling protocol (Affymetrix). Standardized array processing procedures recommended by Affymetrix were performed, including hybridization, fluidics processing and scanning of the Affymetrix Mouse Genome 430 2.0 Array chips. The affy package in R was used to normalize the raw data (Affymetrix CEL files) by Robust Multichip Average (RMA) algorithm. Then the limma package was used to identify regulated genes between groups and generate lists of differentially expressed genes using linear models and empirical Bayes method with an FDR-adjusted p-value cut-off of p<0.05 (Smyth, 2004, Statistical Applications in Genetics and Molecular Biology 3, No. 1, Article 3).\nRNA was extracted from the terminal ileum of the 6-week old NOD mice. Raw probe intensities were normalized by the Robust Multichip Average (RMA) algorithm using affy package in R and then the limma package was used to identify regulated genes using linear models and empirical Bayes method with an FDR-adjusted p-value cut off of p<0.05 (Smyth 2004, Statistical Applications in Genetics and Molecular Biology 3, No. 1, Article 3.)."}, "[2]": {"conditions": "terminal ileum, NOD male mice, microarray"}, "[3]": {"conditions": "terminal ileum, NOD male mice, microarray, probe with greatest fold change"}}, "note": "Structures can show the parent of a compound that is named as a salt."}
{"smiles": "CC1(C)S[C@@H]2[C@H](NC(=O)COc3ccccc3)C(=O)N2[C@H]1C(=O)[O-].[K+]", "note": "[STAT, penicillin VK]", "values": [{"measurement": "ileal atrophy", "setting": "ileal tissue structure", "value": "significantly more"}]}
{"smiles": "CC[C@H]1OC(=O)C[C@@H](O)[C@H](C)[C@@H](O[C@@H]2O[C@H](C)[C@@H](O[C@H]3C[C@@](C)(O)[C@@H](O)[C@H](C)O3)[C@H](N(C)C)[C@H]2O)[C@@H](CC=O)C[C@@H](C)C(=O)/C=C/C(C)=C/[C@@H]1CO[C@@H]1O[C@H](C)[C@@H](O)[C@@H](OC)[C@H]1OC", "note": "[Tylosin, Tylosin tartrate]", "values": [{"measurement": "SAA gene expression (SAA 1, 2, 3) in the terminal ileum", "setting": "[1]", "value": "significantly decreases"}, {"measurement": "differentially regulated genes that were down", "setting": "terminal ileum; NOD females", "value": 42.1, "unit": "%"}, {"measurement": "differentially regulated genes that were down", "setting": "terminal ileum; NOD males", "value": 69.3, "unit": "%"}, {"measurement": "log2 fold change (PAT/control), Arl5b", "setting": "terminal ileum; [2]", "value": 2.42}, {"measurement": "log2 fold change (PAT/control), Bhmt", "setting": "terminal ileum; [2]", "value": "−1.52"}, {"measurement": "log2 fold change (PAT/control), Ccl20", "setting": "terminal ileum; [2]", "value": "−0.86"}, {"measurement": "log2 fold change (PAT/control), Clec2d", "setting": "terminal ileum; [2]", "value": "−0.65"}, {"measurement": "log2 fold change (PAT/control), Dio1", "setting": "terminal ileum; [2]", "value": "−1.34"}, {"measurement": "log2 fold change (PAT/control), Dusp14", "setting": "terminal ileum; [2]", "value": 2.22}, {"measurement": "log2 fold change (PAT/control), Edn2", "setting": "terminal ileum; [2]", "value": "−1.67"}, {"measurement": "log2 fold change (PAT/control), Ereg", "setting": "terminal ileum; [2]", "value": 1.73}, {"measurement": "log2 fold change (PAT/control), G6pc", "setting": "terminal ileum; [2]", "value": "−2.85"}, {"measurement": "log2 fold change (PAT/control), Gjb3", "setting": "terminal ileum; [2]", "value": 0.77}, {"measurement": "log2 fold change (PAT/control), Gzma", "setting": "terminal ileum; [2]", "value": "−1.48"}, {"measurement": "log2 fold change (PAT/control), Il1rn", "setting": "terminal ileum; [2]", "value": 1.70}, {"measurement": "log2 fold change (PAT/control), Il17rd", "setting": "terminal ileum; [2]", "value": "−0.58"}, {"measurement": "log2 fold change (PAT/control), Irf1", "setting": "terminal ileum; [2]", "value": "−1.14"}, {"measurement": "log2 fold change (PAT/control), Maff", "setting": "terminal ileum; [2]", "value": 2.22}, {"measurement": "log2 fold change (PAT/control), Phlda1", "setting": "terminal ileum; [2]", "value": 1.96}, {"measurement": "log2 fold change (PAT/control), S100a14", "setting": "terminal ileum; [2]", "value": 1.00}, {"measurement": "log2 fold change (PAT/control), Saa1", "setting": "terminal ileum; [2]", "value": "−4.00"}, {"measurement": "log2 fold change (PAT/control), Saa2", "setting": "terminal ileum; [2]", "value": "−1.44"}, {"measurement": "log2 fold change (PAT/control), Tifa", "setting": "terminal ileum; [2]", "value": "−1.32"}, {"measurement": "log2 fold change (PAT/control), Tppp", "setting": "terminal ileum; [2]", "value": "−1.35"}, {"measurement": "log2 fold change (PAT/control), Acsl3", "setting": "terminal ileum; [3]", "value": 1.59}, {"measurement": "log2 fold change (PAT/control), Ccl28", "setting": "terminal ileum; [3]", "value": "−0.64"}, {"measurement": "log2 fold change (PAT/control), Cd38", "setting": "terminal ileum; [3]", "value": "−1.02"}, {"measurement": "log2 fold change (PAT/control), Chka", "setting": "terminal ileum; [3]", "value": 1.97}, {"measurement": "log2 fold change (PAT/control), Flrt3", "setting": "terminal ileum; [3]", "value": 2.56}, {"measurement": "log2 fold change (PAT/control), Il1rl1", "setting": "terminal ileum; [3]", "value": 1.64}, {"measurement": "log2 fold change (PAT/control), Klf4", "setting": "terminal ileum; [3]", "value": 0.86}, {"measurement": "log2 fold change (PAT/control), Slc2a1", "setting": "terminal ileum; [3]", "value": 1.26}, {"measurement": "log2 fold change (PAT/control), Socs2", "setting": "terminal ileum; [3]", "value": "−0.77"}, {"measurement": "log2 fold change (PAT/control), Tnfrsf12a", "setting": "terminal ileum; [3]", "value": 1.72}, {"measurement": "log2 fold change (PAT/control), Tnfsf10", "setting": "terminal ileum; [3]", "value": "−1.46"}, {"measurement": "log2 fold change (PAT/control), Zfand2a", "setting": "terminal ileum; [3]", "value": 2.11}, {"measurement": "log2 fold change (PAT/control), Rab30", "setting": "terminal ileum; terminal ileum, PAT-treated NOD male mice, 6-week, microarray", "value": 4.27}, {"measurement": "log2 fold change (PAT/control), Areg", "setting": "terminal ileum; terminal ileum, PAT-treated NOD male mice, microarray", "value": 3.94}]}
